Laboratory results published in article PMC8907193, “The YΦ motif defines the structure-activity relationships of human 20S proteasome activators” (Nature Communications, 2022).
Square brackets hold non-standard residues; d marks the D form. Ends that are not written are not given here. Peptide text beside a SMILES is read from it. Cha = N[C@@H](CC1CCCCC1)C(=O)O

What was measured:
[1] = system: T1, human 20S proteasome (h20S); assay: h20S stimulation, hydrolysis of suc-LLVY-amc (chymotryptic-like activity); type: biochemical
T1 construct: purchased Proteasome Center
Method: Human 20S (h20S) (final concentration of 4 nM) was incubated in the presence or absence of activators (peptides, 0.2–600 μM; MBP 0.2–400 μM; PA26, 0.04–3500 nM) at ambient temperature for 5 min. Substrate (suc-LLVY-amc, 10 μM; boc-LRR-amc, 20 μM; or FAM-LFP, 100 nM) was added immediately before reading. Fluorescence intensity of suc-LLVY-amc and boc-LRR-amc (excitation, 355 nm; emission, 440 nm; cutoff 435 nm) or FAM-LFP (excitation, 490 nm; emission, 520 nm; cutoff, 515 nm) were monitored at 30 to 60 s intervals for 30 min at 25 °C using a Spectramax M5 microplate reader (Molecular Devices; SoftMax Pro 6.5.1). The hydrolysis rate was calculated from the slope of the curve between 100 and 500 s (500 and 1000 s for boc-LRR-amc) in arbitrary units (RFU per s).
Data were processed and fit in GraphPad Prism 8.1.2. The baseline hydrolysis was normalized to the total mean activity for the lowest concentration of every activator assayed in a given plate and the maximal hydrolysis was normalized as reported. The normalized activity was plotted relative to log10(activator). Data was fit to the model for log(agonist) versus response (variable slope). In Eq. (1), X = log[activator, μM] except for PA26-based activators, which are in nanomolar.1 Y=Bottom+(Top−Bottom)/1+10^((logEC50−X)×Hillslope)

[2] = Visual inspection of 10 mM DMSO stocks (solubility); type: physicochemical; conditions: 10 mM in DMSO (Suppl Fig 1e)

| Compound | improvement of potency relative to Opt5^YY ([1]; ratio of EC50) | stimulation of h20S, result in words ([1]; suc-LLVY-amc turnover) | solubility of DMSO stock, visual [2] |
| --- | --- | --- | --- |
| CC(C)C[C@H](NC(=O)[C@@H](N)CC(N)=O)C(=O)N[C@@H](CO)C(=O)N[C@@H](Cc1ccc(O)cc1)C(=O)N[C@@H](CC1CCCCC1)C(=O)N[C@H](C(=O)O)[C@@H](C)O [Opt5^Y4] (H-NLSY[Cha]T-OH; N-terminus and C-terminus assumed) | ~ 2 fold | completely inactivated | – |
| ANLQYFA [hRpt5-YP2F] | – | – | insoluble |
